From patent US20240428951A1, “METHODS AND SYSTEMS FOR PERSONALIZED IN-SILICO HEMATOPOIESIS AND DISEASE/LEUKEMIA SIMULATION FOR TREATMENT SELECTION AND OPTIMIZATION” (GEORGIA TECH RESEARCH CORPORATION, priority 2021, published 2024)

Assays:
[1] = Patient peripheral blood / neutrophil recovery during treatment; format: in vivo, human; conditions: one patient, 4 cycles of low-dose treatment (FIG. 10A, 11A)
Text: FIGS. 10A and 10B show examples of visual representations of dynamic prediction of peripheral blood recovery determined using the method according to embodiments.
FIGS. 11A and 11B show examples of visual representations of retrospective comparisons of dynamic prediction of absolute neutrophils count (lines) determined using the method according to embodiments and patient clinical assessment of daily neutrophils count during treatment (dots).
The patient initially presented with granulocytic dysplasia that delayed neutrophil recovery.

leukemic blasts = test: Patient leukemia response to treatment (percentage of leukemic blasts in BM, clinical assessments compared with simulation); format: in vivo, human; conditions: one patient
Text: FIGS. 9A and 9B show examples of visual representations of retrospective comparisons of dynamic prediction of the overall percentage of abnormal cells/leukemic blasts (lines) determined using the method according to embodiments and patient clinical assessments (dots).
FIGS. 9A and 9B show examples of visualizations of dynamic prediction of the overall percentage of leukemic blasts. By showing the percentage of overall leukemic blasts (addition of all subclones) in graphs, the leukemic burden in BM can be visualized.

Nc1ccn([C@@H]2O[C@H](CO)[C@@H](O)[C@@H]2O)c(=O)n1 [Ara-C, Cytosine Arabinoside]
hematological recovery [1]: complete hematological recovery
treatment outcome (leukemic blasts; 2 cycles of low-dose treatment (FIG. 9A)): complete remission
leukemic blasts (leukemic blasts; 2 cycles of low-dose treatment (FIG. 9A), bone marrow): < 5%
treatment outcome (leukemic blasts; 4 cycles of low-dose treatment (FIG. 10A, 11A)): complete remission
